Here are results for four molecules from patent US9259389B2, “Pharmaceutical oral dosage form containing a synthetic oligosaccharide” (ENDOTIS PHARMA, priority 2009, dated 2016).

Read-outs that look alike come from different tables or passages of the source.

The bioavailability is dose-corrected exposure relative to a reference, in per cent.

A short description of this data set: Bioavailability after Direct Intra-Duodenal Infusion (DIDI) administration in rat. It counts as in vivo. To be noted: for bioavailability: female, Wistar Han, plasma, other: direct intra-duodenal infusion (DIDI), read-out: DIDI (bioavailability F after Direct Intra-Duodenal Infusion). From the text: Pharmacokinetic Study after Direct Intra-Duodenal Injection:
Direct Intra-Duodenal Infusion (DIDI) has been performed in fasted female Wistar Han rats (175-250 g) to determine the ability of oligosaccharide compounds, in a formulation according to the present invention, to cross the intestinal barrier.
Animals were anesthetized with isoflurane gas in a closed induction chamber and held under anesthesia (3% isoflurane and 2.4 l/min rate) until sacrifice at the end of the experiment. After shaving, a laparotomy was performed and the duodenum exposed. A small pore was created upper the bile duct into the duodenum using a high temperature cautery fine tip. A flexible catheter was inserted into the duodenal lumen through the hole and the upper part of the duodenum was closed and the catheter immobilized by clipping with a forceps. A syringe containing the formulation according to the present invention and diluted as indicated below was placed onto the flexible catheter and the syringe's plunger was slowly depressed releasing the material into the duodenum. Immediately after, a 0.9% NaCl solution was injected (50 μl) to ensure complete compound administration. At this step, peritoneal cavity and skin of the rats were closed using silk suture.
The dose of the oligosaccharide compound according to the present invention to be administrated is 2 mg/kg of body weight or 4 mg/kg of body weight. Therefore, each rat received the quantity of the formulation corresponding to this dosage (i.e. for the dose of 2 mg/kg of body weight, 0.4 mg per rat of 200 g, corresponding to 40 mg of formulation for a formulation containing 1% by weight of the oligosaccharide), diluted extemporaneously at ambient temperature in water for injection with a total volume of administration of 500 μl.
Sometimes, it can be advantageous to first heat the formulation to 37° C. for 15 min under agitation to optimize dilution of the formulation.
Blood samples were collected over a certain period of time (in general 0.25; 0.5; 1; 1.5; 2; 2.5 h) and plasma analyzed as described below.
Quantification of the Compounds in Plasma:
Plasma concentration of the synthetic oligosaccharide (μg compound/mL plasma) was determined using a bioassay based on the factor Xa inhibitory activity of the compounds in the presence of antithrombin (AT). First, AT was added in excess to the plasma sample, allowing 1/1 oligosaccharide/AT complex formation. Factor Xa was then added in excess, and remaining active factor Xa was determined by spectrophotometry at 405 nm using a chromogenic reagent as a substrate. A dose-response curve was established for each compound to be quantified in rat plasma.
Pharmacokinetic Study after Intravenous Administration: […]

On to `CO[C@H]1O[C@H](COS(=O)(=O)O)[C@@H](O[C@@H]2O[C@@H](C(=O)O)[C@@H](O[C@H]3O[C@H](COS(=O)(=O)O)[C@@H](O[C@@H]4O[C@H](C(=O)O)[C@@H](O[C@H]5O[C@H](COS(=O)(=O)O)[C@@H](O)[C@H](O)[C@H]5NS(=O)(=O)O)[C@H](O)[C@H]4O)[C@H](OS(=O)(=O)O)[C@H]3NS(=O)(=O)O)[C@H](O)[C@H]2OS(=O)(=O)O)[C@H](O)[C@H]1NS(=O)(=O)O` [Fondaparinux, reference compound], for which, under “active: sodium fondaparinux, dose delivered 2 mg/kg, AUC0-2 DIDI vs intravenous”, the bioavailability worked out at 3%. On to `CCCCOC1C(COS(=O)(=O)[O-])OC(OC2C(OC)C(OC)C(OC3C(COS(=O)(=O)[O-])OC(OC4COC(OC5C(COS(=O)(=O)[O-])OC(OC)C(OS(=O)(=O)[O-])C5O)[C@H](OCC(=O)[O-])C4OC)C(OS(=O)(=O)[O-])C3OS(=O)(=O)[O-])OC2(CC)C(=O)[O-])C(N)C1OCCCC.[Na+].[Na+].[Na+].[Na+].[Na+].[Na+].[Na+].[Na+]` (stereo partly shown) [Sodium salt of 122 without formulation], for which the bioavailability (active: sodium salt of compound 122, AUC0-2 DIDI vs intravenous) was determined as 2.5 ± 1%. As for `CCC1(C(=O)[O-])OC(OC2C(COS(=O)(=O)[O-])OC(OC3COC(OC4C(COS(=O)(=O)[O-])OC(OC)C(OS(=O)(=O)[O-])C4OC)[C@H](OCC(=O)[O-])C3OC)C(OS(=O)(=O)[O-])C2OS(=O)(=O)[O-])C(OC)C(OC)C1OC1OC(COS(=O)(=O)[O-])C(OCCOCCOCCOCCN)C(OC)C1OC.[Na+].[Na+].[Na+].[Na+].[Na+].[Na+].[Na+].[Na+]` (stereo partly shown) [Sodium salt of 147 without formulation], the bioavailability (active: sodium salt of compound 147, AUC0-2 DIDI vs intravenous) was determined as 1 ± 10%.

With Fondaparinux Benzathine, the “DIDI (bioavailability F after Direct Intra-Duodenal Infusion)” value (active: Fondaparinux Benzathine, 2 mg/kg, AUC0-2 DIDI vs intravenous) amounted to 2 ± 1%.
